From patent publication US20260158149A1, “GLYCOSYLATED PRODRUGS” (UNIVERSITEIT LEIDEN, priority 2021, published 2026)
Where two headings read alike, the source gives them in different places.

Columns and labels:
Larval body length = format: in vivo, Zebrafish (Danio rerio); details: 5 dpf, treatment from 2 hpf
Description: When the regeneration of the tail fins after wounding or the larval body length was used as a readout, chemical treatments of the embryos were started at 2 hours post fertilization (hpf) and continued until 5 dpf. During this period, solutions were refreshed daily. At 5 dpf, larvae were imaged using a LeicaMZ16FA fluorescence stereomicroscope supported by LAS 3.7 software, and the length of the larvae was measured using ImageJ software (15 larvae per treatment group). For the regeneration experiments, tail fins were amputated at 2 dpf and larvae were imaged at 5 dpf (15 larvae per treatment group). The newly grown tissue can be distinguished from the old tissue, enabling precise measurement of the size of the newly grown tissue using ImageJ software.

IL-6 = assay: CAIA model: serum IL-6 by ELISA; format: in vivo, mouse
Description: All mice received 1.5 mg of a CAIA-cocktail (Chondrex) intravenously on day 1, followed by intraperitoneal (i.p.) injection of 50 μg LPS (Chondrex) on day 4. Mice were randomly divided into six groups. […] Scores were assigned blinded. […] The blood collection on day 14 was performed after 6 h fasting. On day 15, mice were sacrificed using carbon dioxide, and tissue samples were collected that were immediately frozen in liquid nitrogen. Applied humane endpoints were a total body weight loss of >20% in comparison to the day of LPS treatment or reaching an arthritis score of 45.
IL-6 concentrations were determined by ELISA in the serum collected at days 10 and 15, using the IL-6 mouse ELISA kit (Invitrogen), following the manufacturer's protocol. The insulin concentration was determined in serum collected at day 14, using the Ultra-sensitive mouse insulin ELISA kit (Crystal Chem), following the manufacturer's protocol. Corticosterone concentrations were determined in serum collected at day 15, using the Corticosterone HS (high sensitivity) enzyme immunoassay kit (Immunodiagnostic Systems), following the manufacturer's protocol. Expression levels of various GR target genes were determined by qPCR in the tissue samples (homogenized in TRIzol Reagent (ThermoFisher)) collected at day 15.

[1] = test system: Gr target genes fkbp5, pck1 and nfkbiaa; assay: qPCR of Gr target genes fkbp5, pck1, nfkbiaa; format: in vivo, Zebrafish (Danio rerio)
Description: For experiments in zebrafish, gene expression was measured using 3 dpf embryos. Groups of 15 larvae were collected in TRIzol reagent (Invitrogen) and mRNA was isolated using the miRNeasy mini kit (Qiagen), according to the manufacturer's instructions. For experiments in HeLa cells, samples were collected from a single well from 6 well plates (80% confluent) in TRIzol reagent and mRNA was isolated using the RNeasy mini kit. Zebrafish and cells samples were treated with DNAse utilizing the DNA-Free™ kit (Ambion). The cDNA synthesis was performed using iScript cDNA synthesis kit (Bio-Rad) using 1 μg of RNA per sample. For qPCR, 10 μM of forward and 10 μM of reverse primer, 12.5 μL of iQ SYBR Green Supermix (Bio-Rad), and 2 μL of cDNA were added to the qPCR reaction mixture. […] The qPCR reactions were performed on a MyiQ-single-color real-time PCR detection system (Bio-Rad) with initial denaturation for 3 min at 95° C. and 40 cycles of 15 s at 95.5° C., 15 s at 60° C., and 30 s at 72° C. Cycle threshold values (Ct values, i.e. the cycle numbers at which a threshold value of the fluorescence intensity was reached) were determined for each sample. The gene expression level for each sample was normalized using the expression of ppial (peptidylprolyl isomerase Ab (cyclophilin A)) for zebrafish samples, and 18S rRNA for human cells. The fold change per sample (compared to the respective control group) was calculated using the ΔΔCt method.

[2] = test system: neutrophils migrated to the wounded area; assay: Tail fin amputation assay: neutrophil migration to the wounded area; format: in vivo, Zebrafish (Danio rerio)
Description: Zebrafish (Danio rerio) were maintained and handled according to the guidelines from the Zebrafish Model Organism Database (https://zfin.org/) and in compliance with the directives of the local animal welfare committee of Leiden University. To maintain circadian rhythmicity, adult fish were exposed to a 14 h light and 10 h dark cycle. Fertilization was performed by natural spawning at the beginning of the light period. Fertilized eggs were collected and raised at 28° C. in egg water (60 μg/ml Instant Ocean sea salts and 0.0025% methylene blue). The following zebrafish lines were used in this study: AB/TL wild type, the transgenic lines Tg(mpx:GFP^i114/mpeg1:mCherry^umsF001) (Bernut et al., (2014). Mycobacterium abscessus cording prevents phagocytosis and promotes abscess formation. Proc Natl Acad Sci USA 111, E943-952; Renshaw et al., (2006). A transgenic zebrafish model of neutrophilic inflammation. Blood 108, 3976-3978), and Tg(9xGCRE-HSV.UI123:EGFP)^ia20 (Benato et al., (2014). A living biosensor model to dynamically trace glucocorticoid transcriptional activity during development and adult life in zebrafish. Mol Cell Endocrinol 392, 60-72), and the mutant lines gba2^−/− (Lelieveld et al., (2019). Role of beta-glucosidase 2 in aberrant glycosphingolipid metabolism: model of glucocerebrosidase deficiency in zebrafish. J Lipid Res 60, 1851-1867) and gr^s357 (Ziv et al., (2013). An affective disorder in zebrafish with mutation of the glucocorticoid receptor. Mol Psychiatry 18, 681-691).
For the tail fin amputation experiments, 3 days post fertilization (dpf) larvae from the Tg(mpx:GFP^i114/mpeg1:mCherry^umsF001) line were anesthetized in 0.02% buffered aminobenzoic acid ethyl ester (tricaine) in egg water and placed on a 2% agarose-coated petri dish. The tails were partially amputated with a 1 mm sapphire blade (World Precision Instruments) under a Leica M165C stereomicroscope (Leica Microsystems, Wetzlar, Germany). Chemical treatment (or 0.1% DMSO as vehicle treatment) was started at 2 h before the amputation (pretreatment) and was continued for 4 h after the tail fin amputation (20 larvae per group, unless indicated otherwise), at which time point the larvae were fixed in 4% paraformaldehyde (PFA) overnight at 4° C. and stored at 4° C. until further examination. In some experiments, a 24 h treatment with miglustat, ME656 or MZ31 was started at 2 dpf, and these treatments were continued during the pretreatment and treatment with the other chemicals. For imaging of larvae from the Tg(mpx:GFP^i114/mpeg1:mCherry^umsF001) line, a LeicaMZ16FA fluorescence stereomicroscope with LAS 3.7 software was used. Neutrophils were detected by GFP fluorescence and macrophages by mCherry fluorescence. The neutrophil numbers were determined by blinded manual counting in a pre-determined area. When larvae from gba2^−/− or gr^s357mutant lines were used, neutrophil labeling was performed with the TSA fluorescein detection kit (PerkinElmer) for specific staining of Myeloperoxidase (Mpx)-positive cells, following the manufacturer's instructions.

[3] = test system: collagen antibody-induced arthritis (CAIA)

C[C@]12C=CC(=O)C=C1CC[C@@H]1[C@@H]2[C@@H](O)C[C@@]2(C)[C@H]1CC[C@]2(O)C(=O)CO[C@@H]1O[C@H](CO[C@@H]2O[C@H](CO)[C@@H](O)[C@H](O)[C@H]2O)[C@@H](O)[C@H](O)[C@H]1O [GbPdn, 21-O-Gentobiose-Prednisolone]
larval length (Larval body length): neither did it affect the length of the larvae
serum IL-6 level compared to other treated groups (IL-6; day 10, 12.5 mg/kg): slightly higher IL-6 concentration compared to the other groups
serum IL-6 level compared to the vehicle group (IL-6; day 10, all treatment groups): significant reduction of the IL-6 level
serum IL-6 level (IL-6; day 15, 12.5 mg/kg): a very low level was detected in two (out of four) mice
serum IL-6 level (IL-6; day 15, all groups except 12.5 mg/kg GbPdn): undetectable
expression of Gr target genes fkbp5, pck1 and nfkbiaa [1]: lack of effect
reduction in neutrophil migration in the presence of MZ31 ([2]; GBA2 inhibitor MZ31): abolished by MZ31
migration of neutrophils towards the wounded area ([2]; wild type larvae, 4 h after tail wounding): decrease in the migration of neutrophils
day of maximal effect on arthritis score ([3]; 12.5 mg/kg i.p. daily from day 7): 15 days
day of maximal effect on arthritis score ([3]; 25 mg/kg i.p. daily from day 7): 14 days
day of maximal effect on arthritis score ([3]; 50 mg/kg i.p. daily from day 7): 13 days
arthritis scores after treatment initiation ([3]; all dose groups, daily i.p. from day 7): decreased rapidly after treatment initiation
